Patent US20250257034A1, “INDOLE DERIVATIVES AS SEROTONERGIC AGENTS USEFUL FOR THE TREATMENT OF DISORDERS RELATED THERETO” (priority 2023, published 2025)
Read-outs that look alike come from different tables or passages of the source.

Biological target: human 5-HT2A receptor (Homo sapiens, UniProt P28223)
Experiment: Human 5-HT2A functional FLIPR assay (agonist mode)
Format: cell-based
Set-up: expressed in transfected cells; host or cells: HTR2A&Gα15-HEK293 (tetracycline induction)
Description: The potential excitatory effects of compounds targeting on human 5-hydroxytryptamine receptor 2A (5-HT2A) under agonist mode was assessed.
HTR2A&Gα15-HEK293 cells were cultured in DMEM medium containing 10% dialyzed FBS and 1×penicillin-streptomycin, 100 μg/mL Hygromycin B and 300 μg/mL G418. The cells were passaged about three times a week, maintained between ˜30% to ˜90% confluence.
1. The cell culture medium (DMEM medium containing 10% dialyzed FBS and 1×penicillin-streptomycin, 100 μg/mL Hygromycin B and 300 μg/mL G418), TrypLE™ Express and DPBS to R.T. was warmed in advance.
2. For induction, 1 μg/ml tetracycline (final concentration) was added to cell culture medium and incubated for 48 hours prior to seeding cells into plate at 37° C., 5% (v/v) C02. The cell culture medium was removed from flask. Cells were washed with DPBS.
3. 2 mL TrypLE™ Express was added to the flask, mixed well by gentle shaking and cells were incubated at 37° C. for a few minutes.
4. The cells were checked for morphological change under microscope, the digestion was stopped by adding 4 mL cell culture medium to the flask when most of cells turned to round.
5. The cell suspension was transferred into a 15 mL centrifuge tube, and then centrifuged at 1,200 rpm for 5 minutes.
6. The supernatant was removed. The cell pellet was resuspended with 2 mL cell culture medium.
7. The cell density was counted using cell counter.
9. 30 μL/well cell suspensions added into a 384-well cell plate (The cell density was 20,000 cells/well).
10. The cell plate was incubated overnight at 37° C., 5% (v/v) CO2.
On the day of experiments, culture medium was removed from the cell plate.
10 μL of assay buffer (20 mM HEPES, in 1x HBSS, pH 7.4) was added to each well of the cell plate.
2×dye solution was prepared following the manual of the F LIP R® Calcium 6 Assay Kit: • i. The dye was diluted with assay buffer. • ii. Probenecid was added to the final concentration of 5 mM. • iii. Vortexed vigorously for I-2 minutes.
4. 10 μL of 2x dye solution was added to each well of the cell plate.
5. The cell plate was placed on plate shaker, followed by shaking at 600 rpm for 2 minutes.
6. The plate was incubated at 37° C. for 2 hours followed by an additional 15-minute incubation at 25° C.
1. Serotonin HCl was prepared to the concentration of 10 mM with DMSO.
2. The test compounds were prepared to the concentration of 10 mM with DMSO.
3. The compounds were added to a 384-well compound source plate.
4. 3-folds serial dilutions were performed with DMSO.
5. 90 nL/well of serial diluted compounds was transferred from source plate to a 384-well compound plate by using an Echo.
6. 30 μL/well of assay buffer (20 mM HEPES in 1x HBSS, pH 7.4) was added to the compound plate.
7. The plate was mixed on-plate shaker for 2 minutes.
1. After the cells were incubated with dye solution, the cell plate, compound plate containing 3×compounds and F LIP R tips were placed into F LIP R.
2. 10 μL of 3×compounds transferred from the compound plate to the cell plate by FLIP R.
3. The plate was read for 160 sec with 1 sec interval and the data of agonist mode was obtained.
1. The normalized fluorescence reading (RFU) was calculated as shown below, wherein F max and F min stand for maximum and minimum of calcium signal during defined time window:
2. EC50 by fitting R F U against log of compound concentrations with Hill equation was calculated using XLfit.
The potential excitatory effects of compounds targeting human 5-hydroxytryptamine receptor 2A (5-HT2A) under agonist mode was assessed.
2. For induction, 1 μg/ml tetracycline (final concentration) was added to cell culture medium and incubated for 48 hours prior to seeding cells into plate at 37° C., 5% (v/v) CO2. The cell culture medium was removed from flask. Cells were washed with DPBS.
1. On the day of experiments, culture medium was removed from the cell plate.
2. 10 μL of assay buffer (20 mM HEPES, in 1×HBSS, pH 7.4) was added to each well of the cell plate.

[1] = FLIPR calcium, agonist mode, HTR2A&Gα15-HEK293 cells (Table 39), read-out: h5-HT2A, EC50

Chain of human 5-HT2A receptor (P28223 whole entry): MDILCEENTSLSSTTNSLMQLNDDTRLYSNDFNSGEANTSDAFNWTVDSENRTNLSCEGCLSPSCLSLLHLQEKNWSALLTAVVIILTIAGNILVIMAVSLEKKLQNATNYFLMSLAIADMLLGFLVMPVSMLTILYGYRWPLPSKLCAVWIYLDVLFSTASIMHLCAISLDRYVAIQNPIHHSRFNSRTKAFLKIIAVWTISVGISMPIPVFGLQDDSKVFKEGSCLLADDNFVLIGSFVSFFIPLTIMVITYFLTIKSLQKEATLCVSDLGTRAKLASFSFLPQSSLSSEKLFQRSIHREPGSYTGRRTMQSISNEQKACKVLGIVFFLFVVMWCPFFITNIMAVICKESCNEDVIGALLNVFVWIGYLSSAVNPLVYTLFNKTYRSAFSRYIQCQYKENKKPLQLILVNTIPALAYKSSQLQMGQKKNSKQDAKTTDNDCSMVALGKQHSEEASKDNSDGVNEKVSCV

Row | SMILES | RFU@10 μM (RFU=Fmax−Fmin (Table 39)) | EC50 | RFU@10 μM (RFU=Fmax−Fmin (Table 9)) | EC50 [1] | EC50 (FLIPR calcium, agonist mode, HTR2A&Gα15-HEK293 cells (Table 9), read-out: h5-HT2A, EC50)
1 | COc1ccc2[nH]cc(CCN3CC[C@@H](OC)C3)c2c1 [(R) I-66, (R)-5-methoxy-3-(2-(3-methoxypyrrolidin-1-yl)ethyl)-1H-indole] | 752 RFU | – | – | – | –
2 | COc1ccc2[nH]cc(CCN3CC[C@@H](OC(F)F)C3)c2c1 [(R) I-67, (R)-3-(2-(3-(Difluoromethoxy)pyrrolidin-1-yl)ethyl)-5-methoxy-1H-indole] | 225 RFU | – | – | – | –
3 | COc1ccc2[nH]cc(CCN3CC[C@H](OC(F)F)C3)c2c1 [(S) I-67, (S)-3-(2-(3-(Difluoromethoxy)pyrrolidin-1-yl)ethyl)-5-methoxy-1H-indole] | 2,147 RFU | 994 nM | – | – | –
4 | [2H]C([2H])([2H])N(CCc1c[nH]c2ccc(SC)cc12)C([2H])([2H])[2H] [Compound I-1, N,N-Bis(methyl-d3)-2-(5-(methylthio)-1H-indol-3-yl)ethan-1-amine] | – | 45 nM | 7,177 RFU | – | –
5 | CCN(CC)CCc1c[nH]c2ccc(SC)cc12 [Compound I-12, N,N-Diethyl-2-(5-(methylthio)-1H-indol-3-yl)ethan-1-amine] | – | 77 nM | 1,041 RFU | – | –
6 | CCN(C)CCc1c[nH]c2ccc(SC)cc12 [Compound I-13, N-Ethyl-N-methyl-2-(5-(methylthio)-1H-indol-3-yl)ethan-1-amine] | – | 18 nM | 726 RFU | – | –
7 | CSc1ccc2[nH]cc(CCN(C(C)C)C(C)C)c2c1 [Compound I-17, N-Isopropyl-N-(2-(5-(methylthio)-1H-indol-3-yl)ethyl)propan-2-amine] | – | 37 nM | 8,546 RFU | – | –
8 | CSc1ccc2[nH]cc(CCN(C)C(C)C)c2c1 [Compound I-19, N-Methyl-N-(2-(5-(methylthio)-1H-indol-3-yl)ethyl)propan-2-amine] | – | 33 nM | 819 RFU | – | –
9 | COc1ccc2[nH]cc(CCN(C)CCOC(F)F)c2c1 [Compound I-71, 2-(Difluoromethoxy)-N-(2-(5-methoxy-1H-indol-3-yl)ethyl)-N-methylethan-1-amine] | 1,094 RFU | – | – | 257 nM | –
10 | CN(C)CCc1c[nH]c2ccc(OCCOC(F)F)cc12 [Compound I-128, 2-(5-(2-(Difluoromethoxy)ethoxy)-1H-indol-3-yl)-N,N-dimethylethan-1-amine] | 2,159 RFU | 1210 nM | – | – | –
11 | CN(CCOC(F)F)CCc1c[nH]c2ccccc12 [Compound I-130, N-(2-(1H-Indol-3-yl)ethyl)-2-(difluoromethoxy)-N-methylethan-1-amine] | 247 RFU | – | – | – | –
12 | CN(C)CCc1c[nH]c2ccccc12 [DMT] | 3,493 RFU | – | 3,493 RFU | 163 nM | 163 nM
